From patent publication US10758534B2 (Vertex Pharmaceuticals Incorporated, priority 2014, dated 2020)

Target: T1, F508del (Homo sapiens, UniProt P13569, DEL508-508)
T1 construct: expressed in transfected cells
Test: Protocol 1: membrane potential optical assay (FLIPR III, voltage sensing dye), identification of potentiator compounds
Type: cell-based
Settings: Table 3, compounds of Table 1
Method in brief: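 Mouse NIH 3T3 fibroblasts stably expressing F508del, temperature-corrected at 27 °C for 24 h, pretreated with compound, then loaded with voltage-sensing redistribution dye. Forskolin was added in a single step with a chloride gradient (chloride-free gluconate bath; Bath Solution #1 HEPES pH 7.4). Membrane-potential fluorescence read on FLIPR III.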

T1 sequence (P13569 with tags, fused parts or gaps DEL508-508): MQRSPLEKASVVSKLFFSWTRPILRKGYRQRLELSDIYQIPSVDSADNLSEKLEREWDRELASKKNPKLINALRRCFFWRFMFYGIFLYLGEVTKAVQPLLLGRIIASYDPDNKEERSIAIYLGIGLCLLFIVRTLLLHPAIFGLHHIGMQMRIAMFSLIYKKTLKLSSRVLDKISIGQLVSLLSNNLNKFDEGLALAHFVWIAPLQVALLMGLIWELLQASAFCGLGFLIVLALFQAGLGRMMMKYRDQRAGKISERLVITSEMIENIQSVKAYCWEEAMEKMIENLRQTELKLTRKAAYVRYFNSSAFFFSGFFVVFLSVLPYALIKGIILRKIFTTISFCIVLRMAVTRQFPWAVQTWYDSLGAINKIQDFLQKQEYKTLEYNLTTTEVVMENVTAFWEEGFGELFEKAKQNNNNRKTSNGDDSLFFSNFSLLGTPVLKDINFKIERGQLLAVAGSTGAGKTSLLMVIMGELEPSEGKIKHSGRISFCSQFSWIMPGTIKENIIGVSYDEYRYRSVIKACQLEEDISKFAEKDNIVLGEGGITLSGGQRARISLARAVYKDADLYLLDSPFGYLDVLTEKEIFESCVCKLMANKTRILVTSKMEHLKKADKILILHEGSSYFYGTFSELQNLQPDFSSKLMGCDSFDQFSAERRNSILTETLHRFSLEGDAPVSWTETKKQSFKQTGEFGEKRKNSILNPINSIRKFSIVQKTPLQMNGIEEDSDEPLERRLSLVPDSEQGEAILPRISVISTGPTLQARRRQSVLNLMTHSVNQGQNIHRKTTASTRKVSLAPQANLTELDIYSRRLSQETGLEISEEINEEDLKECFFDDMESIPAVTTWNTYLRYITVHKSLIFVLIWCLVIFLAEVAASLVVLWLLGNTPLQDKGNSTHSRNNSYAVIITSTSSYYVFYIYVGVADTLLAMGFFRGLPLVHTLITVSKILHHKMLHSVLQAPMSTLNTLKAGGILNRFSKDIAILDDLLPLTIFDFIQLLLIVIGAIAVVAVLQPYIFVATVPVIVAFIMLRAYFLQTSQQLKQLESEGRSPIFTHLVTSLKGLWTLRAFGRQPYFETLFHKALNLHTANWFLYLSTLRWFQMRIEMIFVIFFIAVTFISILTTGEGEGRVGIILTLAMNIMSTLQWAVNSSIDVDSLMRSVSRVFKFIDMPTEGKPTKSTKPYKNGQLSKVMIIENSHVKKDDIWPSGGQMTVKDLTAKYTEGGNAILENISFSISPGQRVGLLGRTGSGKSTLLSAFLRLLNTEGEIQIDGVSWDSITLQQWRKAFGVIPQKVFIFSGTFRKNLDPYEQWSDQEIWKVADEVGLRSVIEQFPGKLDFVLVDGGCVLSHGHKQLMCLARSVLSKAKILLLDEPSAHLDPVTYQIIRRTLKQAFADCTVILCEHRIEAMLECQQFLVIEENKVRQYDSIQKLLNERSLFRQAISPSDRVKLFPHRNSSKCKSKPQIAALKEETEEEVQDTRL

With `CCOc1cccc2c1CN(Cc1cc(F)cc(OC)c1)C2(C)C(=O)NS(=O)(=O)c1cccc(F)n1` (stereo not shown) [Compound 1428, 4-ethoxy-2-[(3-fluoro-5-methoxy-phenyl)methyl]-N-[(6-fluoro-2-pyridyl)sulfonyl]-1-methyl-isoindoline-1-carboxamide] as the molecule, how does the EC30 read?
Its EC30 is “+++ (“+++” means <3 uM)”.

`CC(C)COc1cc(F)cc(-c2ccc(C(=O)NS(=O)(=O)c3ccc(OCc4ccccc4)c(N)n3)c(N3C[C@@H](C)CC3(C)C)n2)c1` [Compound 1429, N-[(6-amino-5-benzyloxy-2-pyridyl)sulfonyl]-6-(3-fluoro-5-isobutoxy-phenyl)-2-[(4S)-2,2,4-trimethylpyrrolidin-1-yl]pyridine-3-carboxamide] was tested. Which EC30 did it give?
Its EC30 is “+++ (“+++” means <3 uM)”.

For `CC(C)COc1cc(F)cc(-c2cc(O)c(C(=O)NS(=O)(=O)c3cccc(N)n3)c(N3[C@H](C)CC[C@@H]3C)n2)c1` [Compound 1430, N-[(6-amino-2-pyridyl)sulfonyl]-2-[(2S,5R)-2,5-dimethylpyrrolidin-1-yl]-6-(3-fluoro-5-isobutoxy-phenyl)-4-hydroxy-pyridine-3-carboxamide], which EC30 is on record?
Its EC30 is “+++ (“+++” means <3 uM)”.

Which EC30 does the source give for `CC(C)Cc1ccnn1-c1ccc(C(=O)NS(=O)(=O)c2cccc(N)n2)c(N2C[C@@H](C)CC2(C)C)n1` [Compound 1431, N-[(6-amino-2-pyridyl)sulfonyl]-6-(5-isobutylpyrazol-1-yl)-2-[(4S)-2,2,4-trimethylpyrrolidin-1-yl]pyridine-3-carboxamide] here?
Its EC30 is “+++ (“+++” means <3 uM)”.

With `CCOC(=O)C1CC=C(c2ccc(C(=O)NS(=O)(=O)c3cccc(N)n3)c(Oc3c(C)cc(C)cc3C)n2)CC1` (stereo not shown) [Compound 1432, ethyl 4-[5-[(6-amino-2-pyridyl)sulfonylcarbamoyl]-6-(2,4,6-trimethylphenoxy)-2-pyridyl]cyclohex-3-ene-1-carboxylate] as the molecule, how does the EC30 read?
Its EC30 is “+++ (“+++” means <3 uM)”.

Which EC30 does the source give for `CCOc1cccc2c1CN(Cc1ccc(F)cc1)C2(C)C(=O)NS(=O)(=O)c1cccc(N)n1` (stereo not shown) [Compound 1433, N-[(6-amino-2-pyridyl)sulfonyl]-4-ethoxy-2-[(4-fluorophenyl)methyl]-1-methyl-isoindoline-1-carboxamide] here?
Its EC30 is “++ (“++” means between 3 uM and 10 uM)”.

How did the EC30 turn out when `CC(C)COc1cc(F)cc(-c2ccc(C(=O)NS(=O)(=O)c3cccc(N)n3)c(OC(C)c3cccnc3)n2)c1` (stereo not shown) [Compound 1434, N-[(6-amino-2-pyridyl)sulfonyl]-6-(3-fluoro-5-isobutoxy-phenyl)-2-[1-(3-pyridyl)ethoxy]pyridine-3-carboxamide] was run?
The EC30 was “+++ (“+++” means <3 uM)”.

Which EC30 does the source give for `CC(C)COc1cc(F)cc(-c2ccc(C(=O)NS(=O)(=O)N3CCC[C@H](N)C3)c(N3C[C@@H](C)CC3(C)C)n2)c1` [Compound 1435, N—[[(3S)-3-amino-1-piperidyl]sulfonyl]-6-(3-fluoro-5-isobutoxy-phenyl)-2-[(4S)-2,2,4-trimethylpyrrolidin-1-yl]pyridine-3-carboxamide] here?
The EC30 was “+++ (“+++” means <3 uM)”.

With `CC(C)Oc1ccc(-c2nc(N3C[C@@H](C)CC3(C)C)ccc2C(=O)NS(=O)(=O)c2cccc(N)n2)cn1` [Compound 1436, N-[(6-amino-2-pyridyl)sulfonyl]-2-(6-isopropoxy-3-pyridyl)-6-[(4S)-2,2,4-trimethylpyrrolidin-1-yl]pyridine-3-carboxamide] as the molecule, how does the EC30 read?
The EC30 was “++ (“++” means between 3 uM and 10 uM)”.

`Cc1cc(C)c(Oc2nc(C3=CCCC4(C3)OCCO4)ccc2C(=O)NS(=O)(=O)c2cccc(N)n2)c(C)c1` [Compound 1437, N-[(6-amino-2-pyridyl)sulfonyl]-6-(1,4-dioxaspiro[4.5]dec-8-en-9-yl)-2-(2,4,6-trimethylphenoxy)pyridine-3-carboxamide] was tested. Which EC30 did it give?
The EC30 was “++ (“++” means between 3 uM and 10 uM)”.

With `C[C@@H]1CN(c2nc(C3=CCCCO3)ccc2C(=O)NS(=O)(=O)c2cccc(N)n2)C(C)(C)C1` [Compound 1438, N-[(6-amino-2-pyridyl)sulfonyl]-6-(3,4-dihydro-2H-pyran-6-yl)-2-[(4S)-2,2,4-trimethylpyrrolidin-1-yl]pyridine-3-carboxamide] as the molecule, how does the EC30 read?
Its EC30 is “+++ (“+++” means <3 uM)”.

How did the EC30 turn out when `C[C@@H]1CN(c2nc(C3CC(C)(C)CCC3O)ccc2C(=O)NS(=O)(=O)c2cccc(N)n2)C(C)(C)C1` (stereo partly drawn) [Compound 1439, N-[(6-amino-2-pyridyl)sulfonyl]-6-(2-hydroxy-5,5-dimethyl-cyclohexyl)-2-[(4S)-2,2,4-trimethylpyrrolidin-1-yl]pyridine-3-carboxamide] was run?
Its EC30 is “++ (“++” means between 3 uM and 10 uM)”.

`CC(C)COc1cc(F)cc(-c2ccc(C(=O)NS(=O)(=O)c3cccc(N)n3)c(OCCC3CCCC3)n2)c1` [Compound 1440, N-[(6-amino-2-pyridyl)sulfonyl]-2-(2-cyclopentylethoxy)-6-(3-fluoro-5-isobutoxy-phenyl)pyridine-3-carboxamide] was tested. Which EC30 did it give?
The EC30 was “+++ (“+++” means <3 uM)”.

How did the EC30 turn out when `CC1CN(c2nc(C(C)(C)C)c(-c3cnn(C)c3)cc2C(=O)NS(=O)(=O)c2cccc(N)n2)C(C)(C)C1` (stereo not shown) [Compound 1441, N-[(6-amino-2-pyridyl)sulfonyl]-6-tert-butyl-5-(1-methylpyrazol-4-yl)-2-(2,2,4-trimethylpyrrolidin-1-yl)pyridine-3-carboxamide] was run?
The EC30 was “++ (“++” means between 3 uM and 10 uM)”.

With `CC(C)[C@@H](C)Nc1ccc(-c2ccc(C(=O)NS(=O)(=O)c3cccc(N)n3)c(N3[C@H](C)CC[C@@H]3C)n2)cn1` [Compound 1442, N-[(6-amino-2-pyridyl)sulfonyl]-6-[6-[[(1R)-1,2-dimethylpropyl]amino]-3-pyridyl]-2-[(2S,5R)-2,5-dimethylpyrrolidin-1-yl]pyridine-3-carboxamide] as the molecule, how does the EC30 read?
Its EC30 is “+++ (“+++” means <3 uM)”.

`CC(C)COc1cnn(-c2ccc(C(=O)NS(=O)(=O)c3cccc(N)n3)c(N3C[C@@H](C)CC3(C)C)n2)c1` [Compound 1443, N-[(6-amino-2-pyridyl)sulfonyl]-6-(4-isobutoxypyrazol-1-yl)-2-[(4S)-2,2,4-trimethylpyrrolidin-1-yl]pyridine-3-carboxamide] was tested. Which EC30 did it give?
Its EC30 is “+++ (“+++” means <3 uM)”.

How did the EC30 turn out when `CC(C)COc1cc(F)cc(-c2ccc(C(=O)NS(=O)(=O)c3cccnc3N)c(N3C[C@H](C)CC3(C)C)n2)c1` [Compound 1444, N-[(2-amino-3-pyridyl)sulfonyl]-6-(3-fluoro-5-isobutoxy-phenyl)-2-[(4R)-2,2,4-trimethylpyrrolidin-1-yl]pyridine-3-carboxamide] was run?
The EC30 was “+++ (“+++” means <3 uM)”.

`CC(C)COc1cc(F)cc(-c2ccc(C(=O)NS(=O)(=O)N3CCCC(C)(N)C3)c(N3CC(C)CC3(C)C)n2)c1` (stereo not shown) [Compound 1445, N-[(3-amino-3-methyl-1-piperidyl)sulfonyl]-6-(3-fluoro-5-isobutoxy-phenyl)-2-(2,2,4-trimethylpyrrolidin-1-yl)pyridine-3-carboxamide] was tested. Which EC30 did it give?
The EC30 was “+++ (“+++” means <3 uM)”.

With `CC(C)COc1cc(F)cc(-c2ccc(C(=O)NS(=O)(=O)c3cccc(N)n3)c(OC3CC3)n2)c1` [Compound 1446, N-[(6-amino-2-pyridyl)sulfonyl]-2-(cyclopropoxy)-6-(3-fluoro-5-isobutoxy-phenyl)pyridine-3-carboxamide] as the molecule, how does the EC30 read?
Its EC30 is “+++ (“+++” means <3 uM)”.

With `CC(C)COc1cc(F)cc(-c2ccc(C(=O)NS(=O)(=O)N3CCCC(N)C3)c(N3CC(C)CC3(C)C)n2)c1` (stereo not shown) [Compound 1447, N-[(3-amino-1-piperidyl)sulfonyl]-6-(3-fluoro-5-isobutoxy-phenyl)-2-(2,2,4-trimethylpyrrolidin-1-yl)pyridine-3-carboxamide] as the molecule, how does the EC30 read?
The EC30 was “+++ (“+++” means <3 uM)”.

How did the EC30 turn out when `CCOc1cccc2c1CN(Cc1c(C)cc(C)cc1C)C2(C)C(=O)NS(=O)(=O)c1ccncc1` (stereo not shown) [Compound 1449, 4-ethoxy-1-methyl-N-(4-pyridylsulfonyl)-2-[(2,4,6-trimethylphenyl)methyl]isoindoline-1-carboxamide] was run?
The EC30 was “+++ (“+++” means <3 uM)”.

`CC(C)COc1cc(F)cc(-c2ccc(C(=O)NS(=O)(=O)c3cccc(N)n3)c(OCC3CCCC3)n2)c1` [Compound 1450, N-[(6-amino-2-pyridyl)sulfonyl]-2-(cyclopentylmethoxy)-6-(3-fluoro-5-isobutoxy-phenyl)pyridine-3-carboxamide] was tested. Which EC30 did it give?
Its EC30 is “+++ (“+++” means <3 uM)”.

For `CC(C)COc1cc(F)cc(-c2ccc(C(=O)NS(=O)(=O)c3cccc(N)n3)c(OC3CCCC3)n2)c1` [Compound 1451, N-[(6-amino-2-pyridyl)sulfonyl]-2-(cyclopentoxy)-6-(3-fluoro-5-isobutoxy-phenyl)pyridine-3-carboxamide], which EC30 is on record?
The EC30 was “+++ (“+++” means <3 uM)”.

For `COc1cccc(S(=O)(=O)NC(=O)c2ccc(-c3cc(F)cc(OCC(C)C)c3)nc2N2C[C@@H](C)CC2(C)C)c1` [Compound 1452, 6-(3-fluoro-5-isobutoxy-phenyl)-N-(3-methoxyphenyl)sulfonyl-2-[(4S)-2,2,4-trimethylpyrrolidin-1-yl]pyridine-3-carboxamide], which EC30 is on record?
The EC30 was “+++ (“+++” means <3 uM)”.

How did the EC30 turn out when `CCOc1cccc2c1CN(Cc1c(C)cc(C)cc1C)C2(C)C(=O)NS(=O)(=O)c1ccc(O)cc1` (stereo not shown) [Compound 1453, 4-ethoxy-N-(4-hydroxyphenyl)sulfonyl-1-methyl-2-[(2,4,6-trimethylphenyl)methyl]isoindoline-1-carboxamide] was run?
The EC30 was “+++ (“+++” means <3 uM)”.

Which EC30 does the source give for `CCOc1cccc2c1CN(Cc1c(C)cc(C)cc1C)C2(C)C(=O)NS(=O)(=O)c1cccc(N)c1` (stereo not shown) [Compound 1454, N-(3-aminophenyl)sulfonyl-4-ethoxy-1-methyl-2-[(2,4,6-trimethylphenyl)methyl]isoindoline-1-carboxamide] here?
The EC30 was “+++ (“+++” means <3 uM)”.

How did the EC30 turn out when `C[C@@H]1CN(c2nc(C3=COCC3)ccc2C(=O)NS(=O)(=O)c2cccc(N)n2)C(C)(C)C1` [Compound 1455, N-[(6-amino-2-pyridyl)sulfonyl]-6-(2,3-dihydrofuran-4-yl)-2-[(4S)-2,2,4-trimethylpyrrolidin-1-yl]pyridine-3-carboxamide] was run?
The EC30 was “+++ (“+++” means <3 uM)”.

How did the EC30 turn out when `Cc1cc(C)c(Oc2cc(-c3cc(F)cc(OCC(C)C)c3)cnc2C(=O)NS(=O)(=O)c2cccc(N)n2)c(C)c1` [Compound 1456, N-[(6-amino-2-pyridyl)sulfonyl]-5-(3-fluoro-5-isobutoxy-phenyl)-3-(2,4,6-trimethylphenoxy)pyridine-2-carboxamide] was run?
Its EC30 is “+++ (“+++” means <3 uM)”.
